Data as given in US20130005802A1, “TREATMENT OF WNT/FRIZZLED-RELATED DISEASES” (priority 2009, published 2013).

What was measured:
HT29 cells = test: MTT assay, HT29; format: cell-based
Method: (§1) AsPC-1 tumor cells were cultured with T cells at a 1:5 ratio for 7 days in the presence of MEDI-565 or Cont BiTE (100 ng/mL). On day 7, floating cells were discarded and only adherent AsPC-1 cells were harvested with 0.05% trypsin/EDTA and washed with PBS three times. 1×10^4 AsPC-1 tumor cells were added to each well of 96 well flat bottom plates in 200 μL of complete RPMI1640 medium. The cells were allowed to adhere to the plates overnight at 37° C. (day 0) and were further incubated for 1, 2, 4 or 7 days. 20 μL of 10×MTT (3-[4,5-dimethylthiazol-2-yl]-2,5-diphenyl-tetrazolium bromide, 5 mg/mL) solution was added to each well, and incubated at 37° C. for 2 hr. The adherent cells were lysed with 150 μL of dimethyl sulfoxide (DMSO) and the optical density (OD) at 550 nm was measured.
(§2) Colorectal cancer cell lines were incubated in 96-well flat-bottomed plates at 5,000 cells per well in 200 μL of complete RPMI1640 medium. The cells were allowed to adhere to the plates overnight at 37° C. (day 0). […] Then 20 μL of 10×MTT solution was added to each well and incubated at 37° C. for 2 hr. The adherent cells were lysed with 150 μL of DMSO, and then optical density (OD) at 562 nm was measured. DMSO or culture medium was used as a control.
(§3) MTT assay was performed at each time point.

CRC039 tumors = test: In vivo anti-tumor effect, CRC039 explant tumors; design: species or system NOD/SCID mice; conditions: 10, 100 or 200 mg/kg gavage, 6 days per week, 3 weeks
Method: HCT116 colon cancer cells were harvested from flasks with 0.05% Trypsin/EDTA, washed with PBS, and resuspended with Hanks buffered solution at 5×10^6 cells/100 μL concentration. CRC explants (CRC039) cultured in vitro were harvested with the same procedure, and mixed with equal volume of Matrigel to make 1×10^6 cells/100 μL concentration. A hundred μL of cell suspension was inoculated to the flank of NOD/SCID mice 4 days before the start of treatment. […] Tumor size was measured 3 times a week until mice were sacrificed.
(§4) HCT116 colon cancer cells were harvested from flasks with 0.05% Trypsin/EDTA and resuspended with Hanks buffered solution at 5×10^6 cells/100 μL concentration. CRC explants (CRC039) cultured in vitro were harvested with the same procedure and mixed with equal volume of Matrigel to make 1×10^6 cells/100 μL concentration. The cell suspension (100 μL) was inoculated into the flank of NOD/SCID mice 4 days before the start of treatment. […] Initially, 2 weeks of treatment was planned for both HCT116 and CRC039. However, treatment was extended to 3 weeks for CRC039 cells because the […] grew much slower than the HCT116 cell line. Tumor size was measured 3 times a week until mice were euthanized.

HCT116 cells = test: MTT assay, HCT116; format: cell-based
Method: as §1, §2, §3

[1] = Side effects during in vivo treatment; design: species or system NOD/SCID mice; conditions: up to 200 mg/kg gavage, 2-3 weeks
Method: as §4

fibroblasts = test: Flow-based cytotoxicity assay (annexin V), fibroblasts; format: cell-based; conditions: 3 days, 0.2-20 μM
Method: After 3 days incubation, all cells were harvested with 0.05% trypsin/EDTA and spun down by centrifugation. Cells were labeled with biotin-conjugated Annexin V, and then stained with 7-AAD and Streptavidin-APC. Samples were acquired by FACSCalibur machine (BD Bioscience) and analyzed with CellQuest software. Cells were analyzed for expression of Annexin V as a marker of apoptosis.
Annexin V may be used as a marker for apoptosis and other forms of cell death. […] After 3 days of incubation, all cells were harvested with 0.05% trypsin/EDTA, labeled with biotin-conjugated Annexin V, and then stained with 7-AAD and streptavidin-APC. Samples were acquired by FACSCalibur, and percentages of annexin V-positive cells were analyzed and plotted as shown in FIG. 11. Cells were analyzed for expression of Annexin V as a marker of apoptosis.

Dvl-2 = test: Immunohistochemistry of Dvl-2 in treated tumors; format: in vivo, NOD/SCID mice; conditions: 200 mg/kg, 2 or 3 weeks
Method: Paraffin-embedded specimens were cut into 4 μm-thick of sequential sections. After dewaxing in xylene and rehydrating stepwise in ethanol, sections were subjected to heat-induced antigen retrieval. Endogenous peroxidase activity was blocked with 3% H2O2, and non-specific binding was blocked with non-immune horse sera. Sections were then incubated with primary antibodies overnight at 4C. Anti-β-catenin (sc-65483, Santa Cruz Biotechnology, Inc., Santa Cruz, Calif.) and anti-Dvl-2 (sc-8026, Santa Cruz Biotechnology, Inc., Santa Cruz, Calif.) monoclonal antibodies were used at (1:50) dilution. After rinsing the sections were incubated with the biotinylated secondary antibody (1:200 dilution; Dakopatts, Copenhagen, Denmark) for 30 min at room temperature and then with the avidin-biotin peroxidase complex from the Vector Elite ABC kit (Vector Laboratories, Burlingame, Calif.) according to the manufacturer's instructions. Visualization was achieved using 3,3′-diaminobenzidine tetrahydrochloride and H2O2. Specimens were counterstained with hematoxylin.
NOD/SCID mice were implanted with colorectal cancer explants or cell lines. […] Tumors were excised and fixed with 10% neutralized, buffered formalin. Paraffin-embedded specimens were cut into 4 μm-thick of sequential sections. After dewaxing and rehydration, heat-induced antigen retrieval was performed. […]

CRC explants = test: MTT assay, CRC explants; format: cell-based; conditions: 72 hr
Method: as §1
as §2, with “The” for “Colorectal cancer cell lines were incubated in 96-well flat-bottomed plates at 5,000 cells per well in 200 μL of complete RPMI1640 medium. The”
An MTT assay was performed after 72 hr incubation. After cell lysis with DMSO, the optical density (OD) at 562 nm was measured.

For `O=C(Nc1ccc([N+](=O)[O-])cc1Cl)c1cc(Cl)ccc1O` [niclosamide], the “concentration showing anti-proliferation effect” value (HT29 cells; 0.4, 2, 10 μM tested, 72 hr) was 10 µM, the “% proliferation over time” value (HT29 cells; 0.4, 2, 10 μM, 24-96 hr) was “insensitive” and the tumor growth (CRC039 tumors) was “significantly inhibited the growth”. The “cytotoxic effect compared with 10 μM oxaliplatin” value (HCT116 cells; 2 μM, 72 hr) was “stronger cytotoxic effect”, the “proliferation (MTT, OD 562 nm), sensitivity among three cell lines” value (HCT116 cells; 0.4, 2, 10 μM, 72 hr) was “most sensitive” and the “% proliferation over time” value (HCT116 cells; 0.4, 2, 10 μM, 24-96 hr) was “sensitive”. The “concentration at which cells were killed over time” value (HCT116 cells; 24-96 hr) was 0.4 µM, the “side effects during treatment” value [1] was “no obvious side effect” and the “apoptotic cell death (annexin V)” value (fibroblasts) was “did not show a significant increase”. For the same molecule, the “cytoplasmic expression of Dvl-2 in tumors vs control” value (Dvl-2) was “decreased levels”, the “killing of CRC020 explant cells” value (CRC explants; 5 μM) was “killed significantly” and the “cytotoxicity (MTT, OD 562 nm) in 8 CRC explants” value (CRC explants; 0.4, 2, 10 μM) was “cytotoxic effects”.
